Experimental data as given in PubChem BioAssay (NCI).
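Following 48 hours of exposure in 96-well plates, responses at five concentrations were used to interpolate endpoints linearly. GI50 is the concentration that inhibits growth by half. TGI: concentration producing complete growth inhibition.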

What was measured:
Experiment in all cases: NCI tumour cell line growth inhibition, 48 h
[1] = system: HT29 colon
[2] = system: NCI-H226 lung
[3] = system: CAKI-1 renal
[4] = system: U251 CNS
[5] = system: HL-60(TB) leukemia
[6] = system: UO-31 renal
[7] = system: SK-MEL-2 melanoma
[8] = system: HCT-15 colon
[9] = system: K-562 leukemia
[10] = system: MDA-MB-435
[11] = system: HOP-62 NSCLC
[12] = system: MALME-3M melanoma
[13] = system: ACHN renal
[14] = system: SN12C renal
[15] = system: UACC-257 melanoma
[16] = system: MCF7 breast
[17] = system: HCC-2998 colon
[18] = system: NCI-H23 lung
[19] = system: COLO 205 colon
[20] = system: T-47D breast
[21] = system: OVCAR-8 ovarian
[22] = system: NCI/ADR-RES ovarian
[23] = system: RPMI-8226 leukemia
[24] = system: SF-295 CNS
[25] = system: SF-268 CNS
[26] = system: KM12 colon
[27] = system: NCI-H522 lung
[28] = system: OVCAR-4 ovarian
[29] = system: OVCAR-3 ovarian
[30] = system: UACC-62 melanoma
[31] = system: CCRF-CEM leukemia
[32] = system: TK-10 renal
[33] = system: HCT-116 colon
[34] = system: MOLT-4 leukemia
[35] = system: RXF 393 renal
[36] = system: PC-3 prostate
[37] = system: 786-0 renal
[38] = system: DU-145 prostate
[39] = system: SK-MEL-5 melanoma
[40] = system: EKVX NSCLC
[41] = system: NCI-H460 lung
[42] = system: OVCAR-5 ovarian
[43] = system: SW-620 colon
[44] = system: HS 578T breast
[45] = system: SNB-19 CNS
[46] = system: M14 melanoma
[47] = system: SR leukemia
[48] = system: A549 NSCLC
[49] = system: IGROV1 ovarian
[50] = system: SK-OV-3 ovarian
[51] = system: BT-549 breast
[52] = system: MDA-MB-231 breast
[53] = system: SK-MEL-28 melanoma
[54] = system: A498 renal
[55] = system: SF-539 CNS
[56] = system: LOX IMVI melanoma

Question: `CCN1C(=O)N(CC)C2C1NC(=S)N2/N=C/C=C/c1ccccc1` (stereo unspecified) was tested. Which GI50 [1] did it give?
Answer: The GI50 was 111 nM.

Question: What about the TGI [1] of the same compound?
Answer: The TGI was > 31800 nM.

Question: And the GI50 [2]?
Answer: The GI50 was 383 nM.

Question: And the TGI [2]?
Answer: Its TGI is > 100000 nM.

Question: And the GI50 [3]?
Answer: The GI50 was 71.9 nM.

Question: What about the TGI [3] of the same compound?
Answer: The TGI was > 100000 nM.

Question: What about the GI50 [4] of the same compound?
Answer: The GI50 was 302 nM.

Question: What about the TGI [4] of the same compound?
Answer: The TGI was > 100000 nM.

Question: What about the GI50 [5] of the same compound?
Answer: Its GI50 is 38.7 nM.

Question: What about the TGI [5] of the same compound?
Answer: Its TGI is 290 nM.

Question: What about the GI50 [6] of the same compound?
Answer: Its GI50 is 192 nM.

Question: And the TGI [6]?
Answer: The TGI was > 86600 nM.

Question: What about the GI50 [7] of the same compound?
Answer: Its GI50 is 661 nM.

Question: What about the TGI [7] of the same compound?
Answer: The TGI was > 100000 nM.

Question: What about the GI50 [8] of the same compound?
Answer: The GI50 was 84.9 nM.

Question: And the TGI [8]?
Answer: The TGI was > 100000 nM.

Question: What about the GI50 [9] of the same compound?
Answer: Its GI50 is 49.5 nM.

Question: What about the TGI [9] of the same compound?
Answer: The TGI was > 100000 nM.

Question: And the GI50 [10]?
Answer: The GI50 was 25.3 nM.

Question: And the TGI [10]?
Answer: The TGI was 66.4 nM.

Question: And the TGI [11]?
Answer: Its TGI is > 100000 nM.

Question: And the GI50 [12]?
Answer: The GI50 was 3550 nM.

Question: What about the TGI [12] of the same compound?
Answer: Its TGI is > 100000 nM.

Question: And the GI50 [13]?
Answer: The GI50 was 98 nM.

Question: And the TGI [13]?
Answer: The TGI was > 100000 nM.

Question: What about the GI50 [14] of the same compound?
Answer: Its GI50 is 385 nM.

Question: What about the TGI [14] of the same compound?
Answer: The TGI was > 100000 nM.

Question: What about the GI50 [15] of the same compound?
Answer: Its GI50 is > 100000 nM.

Question: And the TGI [15]?
Answer: The TGI was > 100000 nM.

Question: What about the GI50 [16] of the same compound?
Answer: Its GI50 is 41.8 nM.

Question: And the TGI [16]?
Answer: The TGI was > 100000 nM.

Question: And the GI50 [17]?
Answer: Its GI50 is 328 nM.

Question: And the TGI [17]?
Answer: The TGI was > 58600 nM.

Question: What about the GI50 [18] of the same compound?
Answer: Its GI50 is 546 nM.

Question: And the TGI [18]?
Answer: The TGI was > 100000 nM.

Question: What about the GI50 [19] of the same compound?
Answer: Its GI50 is 213 nM.

Question: And the TGI [19]?
Answer: The TGI was 5440 nM.

Question: What about the GI50 [20] of the same compound?
Answer: The GI50 was 21500 nM.

Question: And the TGI [20]?
Answer: Its TGI is > 100000 nM.

Question: And the GI50 [21]?
Answer: The GI50 was 270 nM.

Question: And the TGI [21]?
Answer: The TGI was > 100000 nM.

Question: And the GI50 [22]?
Answer: The GI50 was 93.5 nM.

Question: What about the TGI [22] of the same compound?
Answer: Its TGI is > 100000 nM.

Question: And the GI50 [23]?
Answer: Its GI50 is 183 nM.

Question: And the TGI [23]?
Answer: Its TGI is > 64200 nM.

Question: And the GI50 [24]?
Answer: The GI50 was 66.6 nM.

Question: What about the TGI [24] of the same compound?
Answer: The TGI was > 100000 nM.

Question: What about the GI50 [25] of the same compound?
Answer: Its GI50 is 320 nM.

Question: And the TGI [25]?
Answer: The TGI was > 100000 nM.

Question: And the GI50 [26]?
Answer: Its GI50 is 92.4 nM.

Question: And the TGI [26]?
Answer: Its TGI is > 100000 nM.

Question: And the GI50 [27]?
Answer: The GI50 was 48.6 nM.

Question: What about the TGI [27] of the same compound?
Answer: The TGI was 4450 nM.

Question: And the GI50 [28]?
Answer: The GI50 was 3310 nM.

Question: And the TGI [28]?
Answer: Its TGI is > 100000 nM.

Question: And the GI50 [29]?
Answer: Its GI50 is 42.5 nM.

Question: What about the TGI [29] of the same compound?
Answer: The TGI was > 100000 nM.

Question: What about the GI50 [30] of the same compound?
Answer: The GI50 was 43.9 nM.

Question: And the TGI [30]?
Answer: The TGI was > 100000 nM.

Question: And the GI50 [31]?
Answer: Its GI50 is 128 nM.

Question: What about the TGI [31] of the same compound?
Answer: The TGI was > 100000 nM.

Question: And the GI50 [32]?
Answer: Its GI50 is 3660 nM.

Question: What about the TGI [32] of the same compound?
Answer: Its TGI is > 100000 nM.

Question: And the GI50 [33]?
Answer: The GI50 was 106 nM.

Question: What about the TGI [33] of the same compound?
Answer: The TGI was > 100000 nM.

Question: What about the GI50 [34] of the same compound?
Answer: Its GI50 is 277 nM.

Question: And the TGI [34]?
Answer: The TGI was > 100000 nM.

Question: And the GI50 [35]?
Answer: The GI50 was 89.9 nM.

Question: And the TGI [35]?
Answer: The TGI was > 100000 nM.

Question: And the GI50 [36]?
Answer: The GI50 was 73.4 nM.

Question: What about the TGI [36] of the same compound?
Answer: The TGI was > 100000 nM.

Question: What about the GI50 [37] of the same compound?
Answer: Its GI50 is 158 nM.

Question: And the TGI [37]?
Answer: Its TGI is > 100000 nM.

Question: And the GI50 [38]?
Answer: Its GI50 is 377 nM.

Question: And the TGI [38]?
Answer: The TGI was > 100000 nM.

Question: What about the GI50 [39] of the same compound?
Answer: Its GI50 is 145 nM.

Question: And the TGI [39]?
Answer: The TGI was 11300 nM.

Question: What about the GI50 [40] of the same compound?
Answer: Its GI50 is 634 nM.

Question: And the TGI [40]?
Answer: Its TGI is > 100000 nM.

Question: And the GI50 [41]?
Answer: Its GI50 is 176 nM.

Question: What about the TGI [41] of the same compound?
Answer: The TGI was > 100000 nM.

Question: And the GI50 [42]?
Answer: The GI50 was 465 nM.

Question: And the TGI [42]?
Answer: The TGI was > 100000 nM.

Question: What about the GI50 [43] of the same compound?
Answer: Its GI50 is 72.6 nM.

Question: And the TGI [43]?
Answer: The TGI was > 100000 nM.

Question: What about the GI50 [44] of the same compound?
Answer: Its GI50 is 82.4 nM.

Question: What about the TGI [44] of the same compound?
Answer: Its TGI is > 100000 nM.

Question: What about the GI50 [45] of the same compound?
Answer: The GI50 was 127 nM.

Question: What about the TGI [45] of the same compound?
Answer: The TGI was > 100000 nM.

Question: What about the GI50 [46] of the same compound?
Answer: Its GI50 is 88.1 nM.

Question: And the TGI [46]?
Answer: Its TGI is > 100000 nM.

Question: And the GI50 [47]?
Answer: Its GI50 is 44.4 nM.

Question: And the TGI [47]?
Answer: The TGI was > 100000 nM.

Question: What about the GI50 [48] of the same compound?
Answer: Its GI50 is 176 nM.

Question: What about the TGI [48] of the same compound?
Answer: The TGI was > 100000 nM.

Question: And the GI50 [49]?
Answer: Its GI50 is 142 nM.

Question: And the TGI [49]?
Answer: Its TGI is > 100000 nM.

Question: And the GI50 [50]?
Answer: The GI50 was 494 nM.

Question: And the TGI [50]?
Answer: Its TGI is > 100000 nM.

Question: And the GI50 [51]?
Answer: The GI50 was 225 nM.

Question: What about the TGI [51] of the same compound?
Answer: Its TGI is 13000 nM.

Question: What about the GI50 [52] of the same compound?
Answer: Its GI50 is 376 nM.

Question: And the TGI [52]?
Answer: Its TGI is > 28100 nM.

Question: What about the GI50 [53] of the same compound?
Answer: The GI50 was 1910 nM.

Question: And the TGI [53]?
Answer: Its TGI is > 100000 nM.

Question: And the GI50 [54]?
Answer: Its GI50 is 24.9 nM.

Question: What about the TGI [54] of the same compound?
Answer: The TGI was 146 nM.

Question: And the GI50 [55]?
Answer: The GI50 was 63.3 nM.

Question: What about the TGI [55] of the same compound?
Answer: The TGI was 871 nM.

Question: And the GI50 [56]?
Answer: The GI50 was 154 nM.

Question: What about the TGI [56] of the same compound?
Answer: The TGI was > 100000 nM.
